Reference: patent publication US20150093351A1, “MALODOR CONTROL COMPOSITIONS HAVING ACTIVATED ALKENES AND METHODS THEREOF” (The Procter & Gamble Company, priority 2012, published 2015)
Where a name gives a salt, the structure may show the parent alone.

Key:
[1] = Headspace SPME GC/MS malodor removal by aqueous Composition 3 (butylamine); conditions: 0.5 wt. % activated alkene in Composition 3, pH 7, no catalyst; 2 hours room temperature, 30 minutes 35° C.; numbers less than 1 = reduced malodor
Method: (§1) All activated alkenes are present in Composition 3 in an amount of 0.5 wt. %, except PEG 400 Dimethylacrylate which is present in Composition 3 in amount of 1.0 wt. %.
(§2) In addition, a Control composition is prepared according to the composition in Table 3, except the activated alkene is omitted. Composition 3 with each activated alkene and the Control composition are then tested for malodor removal performance as described below.
(§3) n-Butanethiol and di-n-propoyl sulfide were chosen as chemical surrogates for sulfur-containing odors such as onion, garlic, sewage, etc. n-Butylamine was used as a representative for amine-containing odors such as fish, pet urine, etc.
(§4) 5 ml of Composition 3 and the Control composition are placed into a separate GC-MS vial and each spiked with 5 microliters of butanthiol or butylamine. The compositions are first equilibrated at room temperature for 2 hours, then incubated at 35° C. for 30 minutes. The headspace of each vial is finally sampled using a polydimethyl siloxane (“PDMS”)/SPME fiber and analyzed by GC/MS. The head space concentrations of odor molecules are measured and the data are normalized to the Control composition.
(§5) Numbers less than 1 denote reduced levels of malodor molecules present in the headspace of Composition 3 relative to the Control composition. The reduced malodor level is attributed to high malodor control efficacy of Composition 3.

[2] = Headspace SPME GC/MS malodor removal by aqueous Composition 3 (butanethiol); conditions: 0.5 wt. % activated alkene in Composition 3, pH 7, no catalyst; 2 hours room temperature, 30 minutes 35° C.; numbers less than 1 = reduced malodor
Method: as §1, §2, §3, §4, §5

[3] = Headspace SPME GC/MS butanethiol removal by aqueous Composition 5 (activated alkene and catalyst); conditions: for Butanethiol head space concentration normalized to Control, catalyst DBU / Butanethiol head space concentration normalized to Control, catalyst n-hexyl amine / Butanethiol head space concentration normalized to Control, catalyst n-octylamine: Composition 5, 0.5 wt. % activated alkene + catalyst, pH 7; for Butanethiol head space concentration normalized to Control, catalyst DBU: DBU 1:150 molar ratio of catalyst:alkene; for Butanethiol head space concentration normalized to Control, catalyst n-hexyl amine: n-hexyl amine 1:15 molar ratio of catalyst:alkene; for Butanethiol head space concentration normalized to Control, catalyst n-octylamine: n-octylamine 1:15 molar ratio of catalyst:alkene; for Butanethiol head space concentration normalized to Control, No catalyst: Composition 5, 0.5 wt. % activated alkene, pH 7, no catalyst
Method: [Worded in the source for another target; this target is reported under the same test.] as §4

[4] = Vapor-phase butanethiol removal, static headspace GC/MS; conditions: 1 μL sample in 10 mL vial, 30 minutes room temperature
Method: This example illustrates the malodor removal efficacy of exemplary activated alkenes-catalyst systems in the vapor phase. […] A 1 μL sample of each activated alkene-catalyst combination listed in Table 7 is pipeted into an individual 10 mL silanized headspace vial. The vials are sealed and allowed to equilibrate for at least 12 hours. This procedure is repeated 2 times for each sample. After the equilibration period, 1.5 mL of the target malodor standard vapor is injected into each 10 mL vial. For thiol analysis, the vials containing a sample+malodor standard are held at room temperature for 30 minutes. Then, a 1 mL headspace syringe is then used to inject 250 μL of each sample/malodor into a GC/MS split/splitless inlet. A GC pillow is used for the amine analysis to shorten the run times. Samples are then analyzed using a GC/MS with a DB-5, 20 m, 1 μm film thickness column with an MPS-2 autosampler equipment with static headspace function. Data is analyzed by ion extraction on each total ion current (56 for thiol) and the area is used to calculate the percent reduction from the malodor standard for each sample. Here, the results are reported as % reduction, and higher numbers represent higher reduction in butanethiol concentration.

[5] = benchmark values; cited from earlier work

| Molecule | Butylamine head space concentration normalized to Control composition, Replicate 1 [1] | Butylamine head space concentration normalized to Control composition, Replicate 2 [1] | Butanethiol head space concentration normalized to Control composition, Replicate 1 [2] | Butanethiol head space concentration normalized to Control composition, Replicate 2 [2] | Butanethiol head space concentration normalized to Control, catalyst DBU [3] | Butanethiol head space concentration normalized to Control, catalyst n-hexyl amine [3] | Butanethiol head space concentration normalized to Control, catalyst n-octylamine [3] | Butanethiol head space concentration normalized to Control, No catalyst [3] | % reduction in butanethiol concentration, 1% w/w DBU [4] [%] | % reduction in butanethiol concentration, 1% w/w n-hexylamine [4] [%] | % reduction in butanethiol concentration, 1% w/w n-octylamine [4] [%] | % reduction in butanethiol concentration, No catalyst [4] [%] | ambient temperature water solubility (benchmark) [5] [g/100 ml] |
| --- | --- | --- | --- | --- | --- | --- | --- | --- | --- | --- | --- | --- | --- |
| C=CC(=O)OCCCCCC [Hexyl Acrylate] | 0.6 | 0.5 | 0.1 | 0.1 | 0.2 | 0.02 | 0 | 0.1 | 23.1 | 11.2 | 21 | 31.9 |  |
| CCOC(=O)/C=C/C(=O)OCC [Diethyl Fumarate] | 0.1 | 0.1 | 0.4 | 0.3 | 0.2 | 0 | 0 | 0.3 | 63 | 3.8 | 11.2 | 20.7 |  |
| O=C1C=CC(=O)N1C1CCCCC1 [N-Cyclohexylmaleimide] | 0.0 | 0.0 | 0.0 | 0.0 |  |  |  |  |  |  |  |  |  |
| OC[C@H]1O[C@@H]2O[C@H]3[C@H](O)[C@@H](O)[C@@H](O[C@H]4[C@H](O)[C@@H](O)[C@@H](O[C@H]5[C@H](O)[C@@H](O)[C@@H](O[C@H]6[C@H](O)[C@@H](O)[C@@H](O[C@H]7[C@H](O)[C@@H](O)[C@@H](O[C@H]8[C@H](O)[C@@H](O)[C@@H](O[C@H]1[C@H](O)[C@H]2O)O[C@@H]8CO)O[C@@H]7CO)O[C@@H]6CO)O[C@@H]5CO)O[C@@H]4CO)O[C@@H]3CO [beta-cyclodextrin] |  |  |  |  |  |  |  |  |  |  |  |  | 1.8 |
| C/C=C/C(=O)C1C(C)C=CCC1(C)C (stereo not drawn) [Delta Damascone] |  |  |  |  |  |  |  |  | 99.6 | 30.7 | 24.4 | 21 |  |
| O=C1C=CC(=O)N1c1ccccc1 [n-phenylmaleimide] |  |  |  |  |  |  |  |  | 10 | 1.5 | 2.2 | 12.4 |  |
| C=CC(=O)N(C)C [N,N Dimethyl Acrylamide] | 1.0 | 1.0 | 0.8 | 0.8 | 0.3 | 0.6 | 0.7 | 0.8 |  |  |  |  |  |
| N,N dimethylacrylamide-4- methoxy phenol |  |  |  |  |  |  |  |  | 95.2 | 50 | 22.3 | 28.2 |  |
| CCOC(=O)/C=C\C(=O)OCC [Diethyl Maleate] | 0.5 | 0.0 | 0.7 | 0.6 | 0.5 | 0.1 | 0.04 | 0.7 | 44.3 | 13.3 | 8.1 | 24.5 |  |
| hydroxypropyl modified beta cyclodextrin |  |  |  |  |  |  |  |  |  |  |  |  | ≥ 60 |
| CC(C)=CCCC(C)=CC=O [Citral] | 0.0 | 0.0 | 0.1 | 0.1 |  |  |  |  |  |  |  |  |  |
| CCc1occc(=O)c1O [Ethyl Maltol] | 0.0 | 0.0 | 0.8 | 0.9 |  |  |  |  |  |  |  |  |  |
| C/C=C/C(=O)C1=C(C)C=CCC1(C)C [Damascenone] | 1.0 | 1.1 | 0.6 | 0.7 | 0.8 | 0.4 | 0.6 | 0.6 |  |  |  |  |  |
